Laboratory results from ChEMBL document CHEMBL5674888, “PRMT5 Promotes Human Lung Cancer Cell Apoptosis via Akt/Gsk3β Signaling Induced by Resveratrol” (Cell Transplant, 2019).
Active and inactive are the calls of the source.

Assays:
Type in all cases: functional, cell-based
A549 [1] = assay: Antiproliferative activity against resveratrol-induced human lung A549 cells at 100 nM measured after 5 days by CCK-8 assay; details: time 5.0 day
ASTC-a-1 [2] = assay: Antiproliferative activity against resveratrol-induced human lung ASTC-a-1 cells at 100 nM measured after 5 days by CCK-8 assay; details: time 5.0 day
A549 [3] = assay: Induction of apoptosis in resveratrol-induced human lung A549 cells at 100 nM assessed as increase in cleaved caspase-3 expression measured by immunoblotting method
ASTC-a-1 [4] = assay: Induction of apoptosis in resveratrol-induced human lung ASTC-a-1 cells at 100 nM assessed as increase in cleaved caspase-3 expression measured by immunoblotting method
A549 [5] = assay: Induction of apoptosis in resveratrol-induced human lung A549 cells assessed as decrease in pAkt level at Thr308 measured by immunoblotting method
A549 [6] = assay: Induction of apoptosis in resveratrol-induced human lung A549 cells assessed as decrease in pAkt level at Ser473 measured by immunoblotting method
A549 [7] = assay: Induction of apoptosis in resveratrol-induced human lung A549 cells assessed as decrease in pGSK3beta level at Ser9 measured by immunoblotting method
A549 [8] = assay: Induction of apoptosis in resveratrol-induced human lung A549 cells assessed as decrease in Cyclin D1 level measured by immunoblotting method
A549 [9] = assay: Induction of apoptosis in resveratrol-induced human lung A549 cells assessed as decrease in Cyclin E1 level measured by immunoblotting method

Measured: Activity

O=C(NC[C@H](O)CN1CCc2ccccc2C1)c1ccnc(NC2CCC2)c1
active: all assays above
